Entries after “also recorded” stand apart in the source; their conditions may differ.
Legend:
[1] = tested on: vaccinia virus expressing the TK.007 HSV-TK variant (IGV-077); set-up: species or system mice; conditions: mouse, in vivo
[2] = tested on: vaccinia virus expressing the TK.007 HSV-TK variant (IGV-035); set-up: species or system BALB/c mice; conditions: mouse, in vivo

## Nc1nc(O)c2ncn(COC(CO)CO)c2n1 [ganciclovir]
[1]
  virus replication in tumors (plaque assay): significantly reduced; also recorded: completely inhibited
  virus-mediated GFP expression in tumors (immunohistochemistry): Low levels; also recorded: no virus-mediated GFP expression was detected
[2]
  average lesion size compared to the vehicle (no vaccinia virus) group: comparable to the group treated with vehicle
  healing of topical lesions caused by vaccinia virus: healed faster
  lesion size compared to the non-treated group: significantly smaller
  virus shedding from the tail scarification site: reduced virus shedding

From patent US11685904B2 (priority 2019, dated 2023)
